Where “and” joins values, the source holds several entries; their conditions need not be identical. Equal entries are not always repeated.
Legend:
P2Y12 receptor [1] = biological target: T1, P2Y12 receptor (Homo sapiens, UniProt Q9H244); assay: Human P2Y12 recombinant cell membrane binding assay with 33P 2MeS-ADP (Assay 3); set-up: expressed in transfected cells; host or cells: HEK cells; conditions: for IC50 / Ki: HEK cell membranes expressing P2Y12, multiple lines = multiple runs; for [33P]-2MeS-ADP Binding to Recombinant Human P2Y12 Membranes (Assay 3) % Inhibition / inhibition at 10 µM: highest concentration tested 10 μM; for inhibition at 10 µM: read-out: [33P]-2MeS-ADP Binding to Recombinant Human P2Y12 Membranes (Assay 3) % Inhibition
Method: 3. Human P2Y12 Recombinant Cell Membrane Binding Assay with ^33P 2MeS-ADP.
The ability of a test compound to bind to the P2Y12 receptor was evaluated in a recombinant cell membrane binding assay. In this competitive binding assay, the test compound competed against a radiolabelled agonist for binding to the P2Y12 receptor, expressed on the cell membrane. Inhibition of binding of the labeled material was measured and correlated to the amount and potency of the test compound. Data from this assay are presented in Table F. This binding assay is a modification of the procedure in Takasaki, J. et. al, Mol. Pharmacol., 2001, Vol. 60, pg. 432.
HEK cells were transfected with the pDONR201P2Y12 vector and cultured in MEM with GlutaMAX I, Earle's salts, 25 mM HEPES (Gibco # 42360-032) containing 10% dialyzed FBS (Gibco # 26400-044), 100 μM nonessential amino acids (Gibco # 11140-050), 1 mM sodium pyruvate (Gibco # 11360-070), 0.05% geneticin (Gibco #10131-027), 3 μg/mL blasticidin (Fluka brand from Sigma # 15205), and 0.5 μg/mL puromycin (Sigma # P-8833).
Confluent cells were washed once with cold DPBS (Gibco # 14190-136). Fresh DPBS was added and the cells were scraped and centrifuged at 500×g for 5 minutes at 4° C. The cell pellets were resuspended in TEE buffer (25 mM Tris, 5 mM EDTA, 5 mM EGTA) containing 1 protease inhibitor cocktail tablet (Roche # 1 873 580) per 50 mL (called TEE+Complete) and can be flash frozen at this point.
In one embodiment, frozen cell pellets were used to prepare the membranes. In that embodiment, the frozen cell pellets were thawed on ice. In another embodiment, cell pellets may be used without flash freezing before moving on to the next step.
Cell pellets were resuspended in TEE buffer+Complete and homogenized in a glass dounce for 12 strokes. The cell suspension was centrifuged at 500×g for 5 minutes at 4° C. The supernatant was saved and centrifuged at 20,000×g for 20 minutes at 4° C. This supernatant was discarded and the cell pellet resuspended in TEE buffer+Complete and homogenized in a glass dounce for 12 strokes. This suspension was centrifuged at 20,000×g for 20 minutes at 4° C. and the supernatant discarded. The pellet was resuspended in assay buffer (50 mM Tris, 100 mM NaCl, 1 mM EDTA) containing one protease inhibitor cocktail tablet per 50 mL, and can be flash frozen as 1 mL aliquots at this point.
Dry compounds were diluted as 10 mM DMSO stocks and tested in a seven-point, three-fold dilution series run in triplicate beginning at 10 μM, final concentration. A 1 mM DMSO intermediate stock was made in a dilution plate and from this the seven dilutions were made to 5× the final concentration in assay buffer containing 0.02% BSA.
To a polypropylene assay plate (Costar # 3365) the following were added: a) 30 μL of assay buffer containing one protease inhibitor cocktail tablet per 50 mL; b) 30 μL of 1 nM ^33P 2MeS-ADP made in assay buffer containing 0.02% BSA and 12.5 mg/mL ascorbic acid; 30 μL of cold 1.5 μM 2MeS-ADP for the positive control wells, or assay buffer containing 0.02% BSA and 12.5 mg/mL ascorbic acid for the negative control wells, or 5× drug dilution; and 60 μL of 1 ug/well membranes.
The plates were incubated at room temperature for 1 hour. The reaction was stopped using a cell harvester to transfer the reaction mixture onto GF/B UniFilter plates (Perkin Elmer # 6005177), and washed three times with wash buffer (50 mM Tris), filtering between each wash. The filter plates were dried for approximately 20 minutes in an oven at 50° C. Back seals were adhered to the filter plates and 25 uL of Microscint 20 scintillation fluid (Perkin Elmer # 6013621) were added. The filter plates were sealed, shaken for 30 minutes, and counted on a Top Count. Data were analyzed using a four-parameter curve fit with a fixed minimum and maximum experimentally defined as the average positive and negative controls on each plate, and with a hill slope equal to one.

P2Y12 receptor [2] = biological target: T1, P2Y12 receptor; assay: as above; set-up: expressed in transfected cells; host or cells: HEK cells; conditions: highest concentration tested 1 μM; read-out: [33P]-2MeS-ADP Binding to Recombinant Human P2Y12 Membranes (Assay 3) % Inhibition
P2Y12 receptor [3] = biological target: T1, P2Y12 receptor; assay: Inhibition of [33P]2MeS-ADP binding to washed human platelet membranes (Assay 1); set-up: the P2Y12 receptor, which is found on the surface of platelets; tissue Interstate Blood bank, Memphis, Tenn; host or cells: human platelets from platelet rich plasma; conditions: for inhibition at 10 µM: highest concentration tested 10 μM
Method: 1. Inhibition of [^33P]2MeS-ADP Binding to Washed Human Platelet Membranes. The ability of a test compound to bind to the P2Y12 receptor was evaluated in a platelet membrane binding assay. In this competitive binding assay, the test compound competed against a radiolabelled agonist for binding to the P2Y12 receptor, which is found on the surface of platelets. Inhibition of binding of the labeled material was measured and correlated to the amount and potency of the test compound. Data from this assay are presented in Table F. Platelet rich plasma (“PRP”) was obtained from the Interstate Blood bank, Memphis, Tenn. Platelet rich plasma was prepared from blood units collected in ACD ((prepared by (1) combining: 2.5 g sodium citrate (Sigma S-4641); 1.5 g citric acid (Sigma C-0706); and, 2.0 g dextrose (Sigma G-7528); (2) bringing pH to 4.5; and (3) adding water to bring volume to 100 mL) and using the light spin protocol; this protocol involves centrifugation at room temperature for approximately 20 minutes at speeds up to 160×g. Platelet rich plasma is supplied in units of approximately 200 ml. Each unit is distributed into four 50 mL polypropylene conical tubes for centrifugation, Blood from each donor is maintained separately.
The 50 mL tubes were centrifuged for 15 minutes at 1100 rpm in Sorvall RT6000D (with H1000B rotor). Internal centrifuge temperature was maintained at approximately room temperature (22-24° C.). This spin pelleted cellular components remaining from the PRP preparation. The supernatant was decanted into fresh 50 mL tubes. To avoid carry over of cellular components following the room temperature centrifugation, approximately 5 mL of PRP was left in the tube and discarded. The tubes were capped and inverted 2-3 times and allowed to stand at room temperature for at least 15 minutes following inversion.
Optionally, a Coulter Counter may be used to count platelets from the resting samples during the resting phase. Normal human platelet counts are expected to range from 200,000 to 400,000 per μL of PRP supernatant.
The 50 mL tubes containing PRP supernatant were centrifuged for 15 minutes at 2300-2400 rpm to loosely pellet the platelets. The supernatant from this spin was decanted immediately into a clean cell culture bottle (Corning bottle) and saved in case further centrifugation was needed. The pellet of each tube was resuspended in 2-4 mL of Wash buffer (pH 6.5) (1 L prepared new daily—134 mM NaCl (Sigma S-5150); 3 mM KCl (Sigma P-9333); 1 mM CaCl2 (JT Baker 1311-01); 2 mM MgCl2 (Sigma M-2670); 5 mM glucose (EM 4074-2); 0.3 mM NaH2PO4 (Sigma S-9638)/12 mM NaHCO3 (J T Baker 3506-01); 5 mM HEPES pH 7.4 (Gibco 12379-012); 0.35% BSA (Sigma A-7906); 330 mg Heparin (bovine lung, Sigma H-4898); and 30 mL of ACD) by repeated gentle aspiration using disposable polypropylene sample pipettes.
Wash buffer (pH 6.5) was added to each tube to bring the volume to approximately 40 mL. Each tube was incubated for at least 15 minutes at 37° C.
The tubes were then centrifuged again for 15 minutes at 2300-2400 rpm to loosely pellet the platelets. The supernatant was decanted and discarded. The pellet was resuspended in 2-4 mL of Assay buffer (pH 7.4) (1 L volume—134 mM NaCl; 3 mM KCl; 1 mM CaCl2; 2 mM MgCl2; 5 mM glucose; 0.3 mM NaH2PO4/12 mM NaHCO3; 5 mM HEPES pH 7.4; and 0.35% BSA) by repeated aspiration using disposable polypropylene sample pipettes.
The pooled platelet preparation was counted using a Coulter Counter. The final concentration of platelets was brought to 1×10^6 per μL using Assay buffer pH 7.4. The platelets were rested for a minimum of 45 minutes at 37° C. before use in the assay.
In one embodiment, the compounds were tested in 96-well microtiter filterplates (Millipore Multiscreen-FB opaque plates, #MAFBNOB50). These plates were used in the assay and pre-wet with 50 μL of Assay buffer pH 7.4 then filtered through completely with a Millipore plate vacuum. […]

[4] = washed human platelet membranes

T1 sequence (Q9H244 whole entry): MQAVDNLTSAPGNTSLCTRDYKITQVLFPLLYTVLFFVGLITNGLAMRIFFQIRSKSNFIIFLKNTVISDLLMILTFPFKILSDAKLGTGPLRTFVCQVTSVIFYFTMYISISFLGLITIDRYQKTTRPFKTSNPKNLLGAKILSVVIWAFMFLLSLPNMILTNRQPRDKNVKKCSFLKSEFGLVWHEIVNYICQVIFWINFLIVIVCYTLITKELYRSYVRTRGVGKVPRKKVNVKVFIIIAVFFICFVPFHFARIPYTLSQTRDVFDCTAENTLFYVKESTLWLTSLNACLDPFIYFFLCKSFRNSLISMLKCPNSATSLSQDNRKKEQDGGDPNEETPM

IC50 (P2Y12 receptor [1])	Ki (P2Y12 receptor [1])	[33P]-2MeS-ADP Binding to Recombinant Human P2Y12 Membranes (Assay 3) % Inhibition (P2Y12 receptor [1])	inhibition at 10 µM (P2Y12 receptor [1])	inhibition at 1 µM (P2Y12 receptor [2])	inhibition at 10 µM (P2Y12 receptor [3])	IC50 (P2Y12 receptor [3]; [4])	Ki (P2Y12 receptor [3]; [4])	SMILES
68 nM and 50 nM and 132 nM	36 nM and 30 nM and 76 nM	93.19%	97.3%	89%				CCc1cc2c(N3CCN(C(=O)c4cccc(-c5ccccc5)c4)CC3)nc(NC[C@H](O)CO)nc2s1 [Example 29, (2S)-3-({4-[4-(1,1′-biphenyl-3-ylcarbonyl)piperazin-1-yl]-6-ethylthieno[2,3-d]pyrimidin-2-yl}amino)propane-1,2-diol]
21 nM	12 nM			93%				CCc1cc2c(N3CCN(C(=O)c4ccc(-c5ccccc5)cc4)CC3)nc(NC(CO)CO)nc2s1 [Example 31, 2-({4-[4-(1,1′-biphenyl-4-ylcarbonyl)piperazin-1-yl]-6-ethylthieno[2,3-d]pyrimidin-2-yl}amino)propane-1,3-diol]
63 nM and 80 nM and 105 nM	33 nM and 50 nM and 61 nM	96.44%	97.7%	88%				CCc1cc2c(N3CCN(C(=O)c4cccc(-c5ccccc5)c4)CC3)nc(NC[C@@H](O)CO)nc2s1 [Example 30, (2R)-3-({4-[4-(1,1′-biphenyl-3-ylcarbonyl)piperazin-1-yl]-6-ethylthieno[2,3-d]pyrimidin-2-yl}amino)propane-1,2-diol]

Second part, the compound before the results:

SMILES	IC50 (P2Y12 receptor [1])	Ki (P2Y12 receptor [1])	[33P]-2MeS-ADP Binding to Recombinant Human P2Y12 Membranes (Assay 3) % Inhibition (P2Y12 receptor [1])	inhibition at 10 µM (P2Y12 receptor [1])	inhibition at 1 µM (P2Y12 receptor [2])	inhibition at 10 µM (P2Y12 receptor [3])	IC50 (P2Y12 receptor [3]; [4])	Ki (P2Y12 receptor [3]; [4])
CCc1cc2c(N3CCN(C(=O)c4ccc(-c5ccccc5)cc4)CC3)nc(NC[C@H](O)CO)nc2s1 [Example 26, (2S)-3-({4-[4-(1,1′-biphenyl-4-ylcarbonyl)piperazin-1-yl]-6-ethylthieno[2,3-]pyrimidin-2-yl}amino)propane-1,2-diol]	20 nM and 61 nM and 47 nM	10 nM and 35 nM and 27 nM	94.85%	98.6%	90%			
CCc1cc2c(N3CCN(C(=O)Cc4ccccc4)CC3)nc(NCCO)nc2s1 [Example 11, 2-({6-Ethyl-4-[4-(phenylacetyl)piperazin-1-yl]thieno[2,3-d]pyrimidin-2-yl}amino)ethanol]	1130 nM and 1190 nM and 905 nM	650 nM and 687 nM and 905 nM	82.93%	76.7%	51%			
CCc1cc2c(N3CCN(C(=O)c4ccc(-c5ccccc5)cc4)CC3)nc(NC[C@@H](O)CO)nc2s1 [Example 27, (2R)-3-({4-[4-(1,1′-biphenyl-4-ylcarbonyl)piperazin-1-yl]-6-ethylthieno[2,3-d]pyrimidin-2-yl}amino)propane-1,2-diol]	10 nM and 48 nM and 43 nM	10 nM and 28 nM and 25 nM	93.86%	100%	92%			
CCc1cc2c(N3CCN(C(=O)Cc4ccccc4)CC3)nc(NCCCO)nc2s1 [Example 9, 3-({6-Ethyl-4-[4-(phenylacetyl)piperazin-1-yl]thieno[2,3-d]pyrimidin-2-yl}amino)propan-1-ol]						75%	3400 nM	3210 nM
CCc1cc2c(N3CCN(C(=O)Cc4ccccc4)CC3)nc(NC3CCCC3)nc2s1 [Example 12, N-Cyclopentyl-6-ethyl-4-[4-(phenylacetyl)piperazin-1-yl]thieno[2,3-d]pyrimidin-2-amine]						43.6%	> 10000 nM	

Source: patent US20080194590A1, “4-Piperazinylthieno [2,3-D] Pyrimidine Compounds as Platelet Aggregation Inhibitors” (Pfizer Inc, priority 2005, published 2008)
